The values that follow come from patent US20040110763A1, “Pyrazolopyridine compound and pharmaceutical use thereof” (priority 2000, published 2004).

For one series, the target named is T1, human A1 receptor (Homo sapiens, UniProt P30542).
T1 sequence (P30542 1-326): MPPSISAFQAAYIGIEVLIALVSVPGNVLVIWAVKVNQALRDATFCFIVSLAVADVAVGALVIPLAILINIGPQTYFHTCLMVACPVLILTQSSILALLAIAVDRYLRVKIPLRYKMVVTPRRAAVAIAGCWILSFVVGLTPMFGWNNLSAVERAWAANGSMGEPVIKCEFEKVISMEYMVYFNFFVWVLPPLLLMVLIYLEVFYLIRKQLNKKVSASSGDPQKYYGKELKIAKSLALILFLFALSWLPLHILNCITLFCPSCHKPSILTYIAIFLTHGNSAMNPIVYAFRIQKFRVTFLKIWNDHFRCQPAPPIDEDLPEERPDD
Kind of series: Adenosine antagonistic activity, radioligand binding, A1 receptor. As to conditions: [3H]DPCPX 4.5 nM. The procedure: (§1) Test 1: Adenosine Antagonistic Activity
(§2) The adenosine antagonistic activity [Ki(nM)] of the test compound was examined by radioligand binding techniques using 8-cyclopentyl-1,3-dipropylxanthine, [dipropyl-2,3-^3H(N)] ([^3H]DPCPX, 4.5 nM) for human A1 receptor and [^3H]CGS 21680 (20 nM) for human A2a receptor.
In general, Ki refers to a measure of affinity in units of concentration, obtained from inhibition or displacement. As to `CC(C)n1nc(-c2c(-c3ccccc3)nn3ccc(O)cc23)ccc1=O` [Example 3, 5-Hydroxy-3-(3-oxo-2-isopropyl-2,3-dihydropyridazin-6-yl)-2-phenylpyrazolo[1,5-a]pyridine], the Ki is 0.14 nM.

For `CC(C)n1nc(-c2c(-c3ccccc3)nn3ccc(C(=O)N(C)C)cc23)ccc1=O` [Example 72, N,N-dimethyl-3-(3-oxo-2-isopropyl-2,3-dihydropyridazin-6-yl)-2-phenylpyrazolo[1,5-a]pyridine-5-carboxamide], the Ki was found to be 0.25 nM.

The target in the next series is human A2a receptor (Homo sapiens, UniProt P29274). Kind of series: Adenosine antagonistic activity, radioligand binding, A2a receptor. As to conditions: [3H]CGS 21680 20 nM. On the procedure: as §1, §2
Chain of human A2a receptor (P29274 whole entry): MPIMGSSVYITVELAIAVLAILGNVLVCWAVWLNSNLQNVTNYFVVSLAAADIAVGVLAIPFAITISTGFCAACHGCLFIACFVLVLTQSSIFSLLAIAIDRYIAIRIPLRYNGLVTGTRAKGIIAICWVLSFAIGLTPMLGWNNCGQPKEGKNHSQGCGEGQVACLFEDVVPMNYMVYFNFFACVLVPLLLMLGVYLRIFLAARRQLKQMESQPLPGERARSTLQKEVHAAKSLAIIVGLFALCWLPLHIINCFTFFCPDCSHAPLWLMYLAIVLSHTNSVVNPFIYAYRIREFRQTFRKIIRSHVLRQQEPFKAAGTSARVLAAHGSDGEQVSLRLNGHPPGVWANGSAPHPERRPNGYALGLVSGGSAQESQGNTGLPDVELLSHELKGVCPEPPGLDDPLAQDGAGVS
`CC(C)n1nc(-c2c(-c3ccccc3)nn3ccc(O)cc23)ccc1=O` [Example 3, 5-Hydroxy-3-(3-oxo-2-isopropyl-2,3-dihydropyridazin-6-yl)-2-phenylpyrazolo[1,5-a]pyridine] came in with a Ki of 1.05 nM.

On to `CC(C)n1nc(-c2c(-c3ccccc3)nn3ccc(C(=O)N(C)C)cc23)ccc1=O` [Example 72, N,N-dimethyl-3-(3-oxo-2-isopropyl-2,3-dihydropyridazin-6-yl)-2-phenylpyrazolo[1,5-a]pyridine-5-carboxamide], for which the affinity corresponds to a Ki of 1.68 nM.

For another series, the system named is ddY mice. Description: Anticatalepsy activity in mouse (haloperidol-induced catalepsy). The series is classed as in vivo. As to conditions: 3.2 mg/kg orally, ddY mice n=7; haloperidol 0.32 mg/kg i.p. 30 min after compound; measured 30 min after injection, bar test up to 30 sec. The procedure: Test 2: Anticatalepsy Activity in Mouse
The test compound (3.2 mg/kg) was administered orally with ddY mice (n=7). Then, haloperidol (0.32 mg/kg) was injected intraperitoneally 30 min. after the administration of the compound. Thirty min. after the injection, the cataleptic responses of mice were measured. The forelimbs of each mouse were placed on a 3 cm high, 3 mm wide horizontal bar, and the duration of cataleptic posture was measured for up to 30 sec.
Take `CC(C)n1nc(-c2c(-c3ccccc3)nn3ccc(C(=O)N(C)C)cc23)ccc1=O` [Example 72, N,N-dimethyl-3-(3-oxo-2-isopropyl-2,3-dihydropyridazin-6-yl)-2-phenylpyrazolo[1,5-a]pyridine-5-carboxamide]: the “Manifestation rate of catalepsy (number of mouse)” value is on record as 0/7.

Tested on in another series: not given
Experiment: not given
Conditions: not given
As usually defined, the melting point is the temperature of the solid-liquid transition. `CC(C)n1nc(-c2c(-c3ccccc3)nn3ccc(O)cc23)ccc1=O` [Example 3, 5-Hydroxy-3-(3-oxo-2-isopropyl-2,3-dihydropyridazin-6-yl)-2-phenylpyrazolo[1,5-a]pyridine] returned a melting point greater than 250 °C.

Regarding `COc1ccn2nc(-c3ccc(F)cc3)c(-c3ccc(=O)n(C)n3)c2c1` [Example 130, 5-Methoxy-3-(3-oxo-2-methyl-2,3-dihydropyridazin-6-yl)-2-(4-fluorophenyl)pyrazolo[1,5-a]pyridine], the melting point lay within 221 to 222 °C.

On to `CCn1nc(-c2c(-c3ccc(F)cc3)nn3ccc(OC)cc23)ccc1=O` [Example 131, 5-Methoxy-3-(3-oxo-2-ethyl-2,3-dihydropyridazin-6-yl)-2-(4-fluorophenyl)pyrazolo[1,5-a]pyridine], for which the melting point was in the range of 179 to 180 °C.

For the compound `CCCn1nc(-c2c(-c3ccc(F)cc3)nn3ccc(OC)cc23)ccc1=O` [Example 132, 5-Methoxy-3-(3-oxo-2-propyl-2,3-dihydropyridazin-6-yl)-2-(4-fluorophenyl)pyrazolo[1,5-a]pyridine], the melting point fell in the range of 190 to 191 °C.

With `Nc1cccc2c(-c3ccc(=O)[nH]n3)c(-c3ccccc3)nn12` [Example 133, 7-amino-3-(3-oxo-2,3-dihydropyridazin-6-yl)-2-phenylpyrazolo[1,5-a]pyridine], the melting point fell in the range of 157 to 159 °C.

Take `CC(C)n1nc(-c2c(-c3ccccc3)nn3c(N)cccc23)ccc1=O` [Example 134, 7-Amino-3-(3-oxo-2-isopropyl-2,3-dihydropyridazin-6-yl)-2-phenylpyrazolo[1,5-a]pyridine]: the melting point lay within 218 to 219 °C.

The compound `COc1ccn2nc(-c3ccccc3)c(-c3ccc(=O)n(C(C)C)n3)c2c1Br` [Example 135, 4-bromo-5-methoxy-3-(3-oxo-2-isopropyl-2,3-dihydropyridazin-6-yl)-2-phenylpyrazolo[1,5-a]pyridine] returned a melting point of 205 to 206 °C.

Turning to `CC(C)n1nc(-c2c(-c3ccccc3)nn3ccc(C#CC(C)(C)O)cc23)ccc1=O` [Example 136, 5-(3-hydroxy-3-methyl-1-butynyl)-3-(3-oxo-2-isopropyl-2,3-dihydropyridazin-6-yl)-2-phenylpyrazolo[1,5-a]pyridine], the melting point was in the range of 171 to 172 °C.

Consider `CC(C)n1nc(-c2c(-c3ccccc3)nn3ccc(C#Cc4ccccc4)cc23)ccc1=O` [Example 138, 5-Phenylethynyl-3-(3-oxo-2-isopropyl-2,3-dihydropyridazin-6-yl)-2-phenylpyrazolo[1,5-a]pyridine], for which the melting point was 185 to 186 °C.

As to `CC(C)n1nc(-c2c(-c3ccccc3)nn3ccc(C(=O)NC4CC4)cc23)ccc1=O` [Example 139, N-cyclopropyl-3-(3-oxo-2-isopropyl-2,3-dihydropyridazin-6-yl)-2-phenylpyrazolo[1,5-a]pyridine-5-carboxamide], the melting point is 184 to 185 °C.

In the case of `CC(C)n1nc(-c2c(-c3ccccc3)nn3ccc(C(=O)NC4CCCCCC4)cc23)ccc1=O` [Example 140, N-Cycloheptyl-3-(3-oxo-2-isopropyl-2,3-dihydropyridazin-6-yl)-2-phenylpyrazolo[1,5-a]pyridine-5-carboxamide], the melting point fell in the range of 239 to 240 °C.

In turn, `CCCCNC(=O)c1ccn2nc(-c3ccccc3)c(-c3ccc(=O)n(C(C)C)n3)c2c1` [Example 143, N-(n-Butyl)-3-(3-oxo-2-isopropyl-2,3-dihydropyridazin-6-yl)-2-phenylpyrazolo[1,5-a]pyridine-5-carboxamide] displayed a melting point of 185 to 186 °C.

`CC(C)n1nc(-c2c(-c3ccccc3)nn3ccc(C(=O)NCc4ccccn4)cc23)ccc1=O` [Example 144, N-(2-Pyridinylmethyl)-3-(3-oxo-2-isopropyl-2,3-dihydropyridazin-6-yl)-2-phenylpyrazolo[1,5-a]pyridine-5-carboxamide]: the melting point was in the range of 193 to 194 °C.

Regarding `CC(C)n1nc(-c2c(-c3ccccc3)nn3ccc(N)cc23)ccc1=O` [Example 146, 5-amino-3-(3-oxo-2-isopropyl-2,3-dihydropyridazin-6-yl)-2-phenylpyrazolo[1,5-a]pyridine], the melting point lay within 196 to 197 °C.

The compound `CC(=O)Nc1ccn2nc(-c3ccccc3)c(-c3ccc(=O)n(C(C)C)n3)c2c1` [Example 147, 5-acetylamino-3-(3-oxo-2-isopropyl-2,3-dihydropyridazin-6-yl)-2-phenylpyrazolo[1,5-a]pyridine] yielded a melting point of 221 to 222 °C.

For `CC(C)n1nc(-c2c(-c3ccccc3)nn3ccc(NC(=O)c4ccccc4)cc23)ccc1=O` [Example 148, 5-Benzoylamino-3-(3-oxo-2-isopropyl-2,3-dihydropyridazin-6-yl)-2-phenylpyrazolo[1,5-a]pyridine], the melting point was 266 to 267 °C.

For the compound `CC(C)C(=O)Nc1ccn2nc(-c3ccccc3)c(-c3ccc(=O)n(C(C)C)n3)c2c1` [Example 149, 5-(2-Methylpropanoylamino)-3-(3-oxo-2-isopropyl-2,3-dihydropyridazin-6-yl)-2-phenylpyrazolo[1,5-a]pyridine], the melting point was 199 to 200 °C.

As for `CC(C)n1nc(-c2c(-c3ccccc3)nn3ccc(NS(C)(=O)=O)cc23)ccc1=O` [Example 150, 5-Methylsulfonylamino-3-(3-oxo-2-isopropyl-2,3-dihydropyridazin-6-yl)-2-phenylpyrazolo[1,5-a]pyridine], the melting point lay within 193 to 194 °C.

`COC(=O)Nc1ccn2nc(-c3ccccc3)c(-c3ccc(=O)n(C(C)C)n3)c2c1` [Example 151, Methyl 3-(3-oxo-2-isopropyl-2,3-dihydropyridazin-6-yl)-2-phenylpyrazolo[1,5-a]pyridin-5-ylcarbamate] came in with a melting point of 213 to 214 °C.

Turning to `CC(C)n1nc(-c2c(-c3ccccc3)nn3ccc(N4CCCC4=O)cc23)ccc1=O` [Example 153, 5-(2-oxo-1-pyrrolidinyl)-3-(3-oxo-2-isopropyl-2,3-dihydropyridazin-6-yl)-2-phenylpyrazolo [1,5-a]pyridine], the melting point was 266 to 267 °C.

As for `COCN(COC)c1ccn2nc(-c3ccccc3)c(-c3ccc(=O)n(C(C)C)n3)c2c1` [Example 154, 5-[bis(methoxymethyl)amino]-3-(3-oxo-2-isopropyl-2,3-dihydropyridazin-6-yl)-2-phenylpyrazolo[1,5-a]pyridine], the melting point fell in the range of 148 to 150 °C.

Consider `CC(=O)Nc1cccc2c(-c3ccc(=O)n(C(C)C)n3)c(-c3ccccc3)nn12` [Example 187, 7-Acetylamino-3-(3-oxo-2-isopropyl-2,3-dihydropyridazin-6-yl)-2-phenylpyrazolo[1,5-a]pyridine], for which the melting point lay in the range of 92 to 96 °C.

In turn, `COc1cccn2nc(-c3ccccc3)c(-c3ccc(=O)n(C(C)C)n3)c12` [Example 194, 4-Methoxy-3-(3-oxo-2-isopropyl-2,3-dihydropyridazin-6-yl)-2-phenylpyrazolo[1,5-a]pyridine] registered a melting point of 185 to 186 °C.

`CC(C)n1nc(-c2c(-c3ccccc3)nn3cccc(O)c23)ccc1=O` [Example 195, 4-Hydroxy-3-(3-oxo-2-isopropyl-2,3-dihydropyridazin-6-yl)-2-phenylpyrazolo[1,5-a]pyridine] registered a melting point of 229 to 230 °C.

The compound `CCOc1cccn2nc(-c3ccccc3)c(-c3ccc(=O)n(C(C)C)n3)c12` [Example 196, 4-ethoxy-3-(3-oxo-2-isopropyl-2,3-dihydropyridazin-6-yl)-2-phenylpyrazolo[1,5-a]pyridine] displayed a melting point of 157 to 158 °C.

With `CCCOc1cccn2nc(-c3ccccc3)c(-c3ccc(=O)n(C(C)C)n3)c12` [Example 197, 4-n-Propoxy-3-(3-oxo-2-isopropyl-2,3-dihydropyridazin-6-yl)-2-phenylpyrazolo [1,5-a]pyridine], the melting point fell in the range of 176 to 177 °C.

The compound `CC(C)n1nc(-c2c(-c3ccccc3)nn3cccc(OCCN(C)C)c23)ccc1=O` [Example 198, 4-(2-(Dimethylamino)ethoxy)-3-(3-oxo-2-isopropyl-2,3-dihydropyridazin-6-yl)-2-phenylpyrazolo[1,5-a]pyridine] showed a melting point of 137 to 138 °C.
